Measurements: patent publication US9096544B2, “Therapeutic compounds” (Wayne State University, priority 2009, dated 2015)
In brackets after ≈: the same amount, converted by molar mass. Where two headings read alike, the source gives them in different places.

Legend:
[1] = system: AML KG-1 human myeloid cell line; test: Test A: apoptosis induction in AML KG-1 cell line; type: cell-based
Description: Inhibition of Cell Growth and Induction of Apoptosis in AML KG-1 Human Myeloid Cell Line.
Methods for measuring the inhibition of cell growth and induction of apotosis followed literature procedures (Dawson, M. I., et al., J. Med. Chem., 2007, 50, 2622-2639).

TF(v-SRC) cells = test: Test B: apoptosis of TF(v-SRC) cells (acridine orange/ethidium bromide, nuclear fragmentation); type: cell-based; conditions: FIG. 2C
Protocol: FIG. 2 illustrates apoptosis induction in FFMA-AML and TF(v-SRC) cells by 3-Cl-AHPC and compound 16. Cells were seeded at 1×10^4 cells/ml, grown for 24 h and then exposed to 1 μM compound 16 or 3-Cl-AHPC A) at various concentrations of the compound for 96 h and B) for increasing times of exposure. C) Induction of apoptosis by 3-Cl-AHPC, all-trans-retinoic acid, 9-cis-retinoic acid and TTNPB in FFMA-AML and TF(v-SRC) cells. The percentage of apoptotic cells was determined using acridine orange and ethidium bromide staining to determine nuclear fragmentation as described in the general biochemical and pharmacological materials and methods. The error bars represent the mean of three separate determinations +/− the standard deviation (SD).
FFMA-AML cells were obtained from a patient with a diagnosis of AML as indicated by the immunophenotyping described in Table 1. This patient was refractory to the chemotherapy regimens consisting of cytosine arabinoside given with daunomycin as well as high-dose cytosine arabinoside. Peripheral blood samples were obtained from the patient utilizing a Wayne State University Institutional Review Board approved protocol and the leukemic blasts were isolated utilizing Ficoll hypaque. The isolated leukemic cells (representing >99% of the cells) were subsequently cultured in RPMI 1640 supplemented with 10% heat-inactivated fetal bovine serum (FBS) and growth factors interleukin 3 (IL-3), granulocyte-colony stimulating factor (G-CSF), granulocyte/macrophage colony-stimulating factor (GM-CSF), and stem cell factor (SCF) as we have previously reported, and then the cells were maintained in 10% FBS and gentamycin (Zhang Y. et al., Blood, 2003; […]:3743-3752). The TF(v-SRC) leukemia cells have been previously described (Black J. H. et al., Leukemia. 2003; 17:155-159). TF(v-SRC) cells were grown in RPMI 1640 supplemented with 10% heat inactivated FBS.
Apoptosis of cells was determined by (1) acridine orange and ethidium bromide-staining to assess cells with nuclear fragmentation and chromatin condensation as previously described (Farhana L. et al., Cancer Res. 2006; 65:4909-4917) and (2) flow cytometry assessing Annexin V-FITC binding together with propidium iodide staining (Annexin V-FITC apoptosis Detection kit 1, BD Biosciences, San Diego, Calif.). Data acquisition was done on a FACS Calibur flow cytometer (BD) and analyzed with CellQuest software.
Cells were grown in the presence and absence of increasing concentrations of either 3-Cl-AHPC or compound 16 and for varying periods of time. There was a progressive increase in 3-Cl-AHPC- and compound 16-mediated apoptosis in both FFMA-AML and TF(v-SRC) cells with time and with increasing concentrations of the compounds. […] We therefore tested the sensitivity of FFMA-AML and TF(v-SRC) cells to apoptosis induction by tRA, 9-cis RA, and TTNPB (FIG. 2C).

[2] = Test H: aqueous solubility by UV absorbance; type: physicochemical; conditions: thermodynamic from solid, 22° C.
Protocol: Standard curves at the UV λmax (330, 350 and 345 nm for 3-Cl-AHPC, 18 and 16, respectively) were generated using 0.245, 0.163, 0.049 and 0.025 mM 3-Cl-AHPC and 0.380, 0.178, 0.053 and 0.027 mM 18 and 16, which were prepared from 1.0% (wt/vol) solutions of compounds in Me2SO. […] Measurements for maximum solubilities in distilled water (pH 5) and phosphate-buffered saline (PBS, pH 7.2) at 22° C. were made by UV absorbance using solutions obtained after saturation at higher temperatures, overnight incubation at 22° C., and centrifugation to remove undissolved material.

[3] = system: acute promyelocytic leukemia (APL); conditions: pharmacologic concentrations; cited from earlier work

SMILES	Apoptosis Induction (% control) 1.0 μM ([1]; treatment time 48 h) [% control]	Apoptosis Induction (% control) 5.0 μM ([1]; treatment time 48 h) [% control]	further results
O=C(O)/C=C/c1ccc(-c2ccc(O)c(C34CC5CC(CC(C5)C3)C4)c2)c(Cl)c1	30	55	
O=C(O)/C=C/c1ccc(-c2ccc(O)c(C34CC5CC(CC(C5)C3)C4)c2)nc1	48	59	
CC(=O)Oc1ccc(-c2ccc(/C=C/C(=O)O)cn2)cc1C12CC3CC(CC(C3)C1)C2	0	0	
O=C(O)/C=C/c1ccc(-c2ccc(O)c(C34CC5CC(CC(C5)C3)C4)c2)nn1	52	67	
O=C(O)/C=C/c1cnc(-c2ccc(O)c(C34CC5CC(CC(C5)C3)C4)c2)c(Cl)c1	55	65	
O=C(O)/C=C/c1ccc(-c2ccc(O)c(C34CC5CC(CC(C5)C3)C4)c2)cn1	36	52	
CC1=C(/C=C/C(C)=C\C=C\C(C)=C\C(=O)O)C(C)(C)CCC1 [Compound 9-cis-RA, 9-cis-retinoic acid]			induction of apoptosis (TF(v-SRC) cells): no real increase in apoptosis
O=C(O)CNc1cnc(-c2ccc(O)c(C34CC5CC(CC(C5)C3)C4)c2)nc1 [Compound 17, 2-[3-(1-Adamantyl)-4-hydroxyphenyl]-5-(carboxymethylamino)pyrimidine]			melting point: 235 °C (dec.)
CCOC(=O)/C=C/c1ccc(-c2ccc(O)c(C34CC5CC(CC(C5)C3)C4)c2)nc1 [Compound 18, Ethyl(E)-3-{6-[3′-(1-adamantyl)-4′-hydroxyphenyl]-3-pyridinyl}-2-propenoate]			melting point: 215 to 217 °C; solubility ([2]; phosphate-buffered saline, aqueous buffer, PBS pH 7.2, read-out: Solubility (μM) at 22° C. PBS (pH 7.2)): 14 µM (≈ 5.65 µg/mL); solubility ([2]; distilled water pH 5, read-out: Solubility (μM) at 22° C. Distilled water (pH 5)): 7 µM (≈ 2.82 µg/mL)
O=C(O)/C=C/c1cnc(-c2ccc(O)c(C34CC5CC(CC(C5)C3)C4)c2)cn1 [Compound 23, (E)-3-{2-[3-(1-Adamantyl)-4-hydroxyphenyl]-5-pyrazinyl}-2-propenoic Acid]			melting point: 296 °C (dec.)
C/C(=C\c1ccc(C(=O)O)cc1)c1ccc2c(c1)C(C)(C)CCC2(C)C [TTNPB]			induction of apoptosis (TF(v-SRC) cells): no real increase in apoptosis
O=C(O)/C=C/c1cnc(-c2ccc(O)c(C34CC5CC(CC(C5)C3)C4)c2)nc1 [drawing 23]	40	50	
O=C(O)CNc1cnc(-c2ccc(O)c(C34CC5CC(CC(C5)C3)C4)c2)nc1 [drawing 24]	0	0	
CCOC(=O)/C=C/c1ccc(-c2ccc(O)c(C34CC5CC(CC(C5)C3)C4)c2)nc1 [drawing 25]	55		Apoptosis Induction (% control) 1.0 μM ([1]; treatment time 24 h): 60 % control; Apoptosis Induction (% control) 5.0 μM ([1]; treatment time 24 h): 68 nd % control
O=C(O)/C=C/c1cnc(-c2ccc(O)c(C34CC5CC(CC(C5)C3)C4)c2)cn1 [drawing 30]	39	50	
CC1=C(/C=C/C(C)=C/C=C/C(C)=C/C(=O)O)C(C)(C)CCC1 [tRA, all-trans-retinoic acid]			induction of apoptosis (TF(v-SRC) cells): no real increase in apoptosis; patients achieving a complete remission [3]: 90%
